From patent US6964957B2, “Fused pyrazole compounds, pharmaceutical compositions, and methods for modulating or inhibiting ERAB or HADH2 activity” (Agouron Pharmaceuticals, Inc., priority 2000, dated 2005)

What was measured:
[1] = target: T1, ERAB (L-3-hydroxyacyl-CoA dehydrogenase) (Homo sapiens, UniProt Q99714); assay: ERAB enzyme assay (loss of NADH absorbance at 340 nm, acetoacetyl-CoA as substrate); type: biochemical; conditions: 2.5 nM enzyme preincubated with inhibitor 400 seconds at 30° C., pH 7.5, 36 uM NADH, 2% DMSO; started with acetoacetyl-CoA (38 uM)
T1 sequence (Q99714 1-261): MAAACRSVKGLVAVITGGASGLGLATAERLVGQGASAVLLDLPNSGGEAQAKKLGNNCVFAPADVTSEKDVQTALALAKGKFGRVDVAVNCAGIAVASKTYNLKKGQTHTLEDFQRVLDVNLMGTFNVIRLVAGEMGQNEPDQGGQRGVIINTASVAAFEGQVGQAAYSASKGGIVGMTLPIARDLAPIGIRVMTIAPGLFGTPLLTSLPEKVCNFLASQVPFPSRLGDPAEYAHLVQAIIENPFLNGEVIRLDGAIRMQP
Protocol: The activity of ERAB (L-3-hydroxyacyl-CoA dehydrogenase) in the reverse direction was determined by a modified version of a method previously described (Binstock et al., Methods Enzymol., 71, 403-411 (1981)). This method is based on the enzyme-catalyzed loss of NADH absorbance at 340 nm with a change in the millimolar extinction coefficient of 6.22 mM^−1 cm^−1. The IC50 value for compounds of the Formula I were determined spectrophotometrically by monitoring the […] with acetoacetyl-CoA as substrate and are reported in Table 1. Assay conditions were 25 mM MOPS, 250 mM NaCl, 2% DMSO, 2.5 mM TCEP, pH 7.5, 30° C. NADH and ERAB were included at 40 uM and 2.5 nM, respectively. Stock solutions of ERAB, prepared in assay buffer, were 1 uM and contained 100 uM NADH for enzyme stability. The assay was run as follows: Enzyme (2.5 nM) was preincubated with inhibitor (without acetoacetyl-CoA present) for 400 seconds at 30° C. in the presence of 36 uM NADH, 25 mM MOPS, pH 7.5, 250 mM NaCl, 2%(v/v) DMSO, and 2.5 mM TCEP. The reaction was initiated by addition of substrate (acetoacetyl-CoA) (38 uM). Reduction of NADH was monitored at 340λ. Initial rates were calculated over a time frame where less than 10% of substrates had been consumed in an uninhibited reaction. For Ki, app determination, inhibitors were added during the preincubation stage from DMSO stock solutions for a final and constant 2% DMSO concentration. Initial rates were calculated and fitted, using non-linear fitting techniques, to the Michaelis equation for enzyme inhibition. The IC50 value was determined by non-linear regression analysis using KaleidaGraph (obtained from Synergy Software, Reading, Pa.).

| SMILES | IC50 [1] | melting point |
| --- | --- | --- |
| CC(c1ccccc1)n1cnc2[nH]ncc2c1=O (stereo not shown) [LVII, 5-(1-Phenyl-ethyl)-1,5-dihydro-pyrazolo[3,4-d]pyrimidine-4-one] | 494000 nM | 210 to 214 °C |
| CC(c1ccccc1)n1cnc2[nH]ncc2c1=S (stereo not shown) [LVIIIa, 5-(1-Phenyl-ethyl)-1,5-dihydro-pyrazolo[3,4-d]pyrimidine-4-thione] | 22000 nM | 170 to 174 °C |
| O=C(C(c1ccccc1)n1cnc2[nH]ncc2c1=O)N1CCCCCC1 (stereo not shown) [L] | 7100 nM | – |
| O=C(C(c1ccccc1)n1cnc2[nH]ncc2c1=S)N1CCC(O)(c2ccccc2)CC1 (stereo not shown) [XVIf, 1-(4-Hydroxy-4-phenyl-piperidin-1-yl)-2phenyl-2-(4-thioxo-1,4-dihydro-1,4-dihydro-pyrazolo[3,4-d]pyrimidin-5-yl)-ethanone] | 81 nM | 142 to 146 °C |
| CC(=O)C1(c2ccccc2)CCN(C(=O)C(c2ccccc2)n2cnc3[nH]ncc3c2=S)CC1 (stereo not shown) [XVIh, 1-(4-Acetyl-4-phenyl-piperidin-1-yl)-2-phenyl-2-(4-thioxo-1,4-dihydro-pyrazolo[3,4-d]pyrimidin-5-yl)-ethanone] | 766 nM | – |
| O=C(C(c1ccccc1)n1cnc2[nH]ncc2c1=S)N1CCN(c2ccccc2)CC1 (stereo not shown) [XVIj, 2-Phenyl-1-(4-phenyl-2-yl-piperazin-1-yl)-2-(4-thioxo-1,4-dihydro-pyrazolo[3,4-d]pyrimidin-5-yl)-ethanone] | 218 nM | 241 to 245 °C |
| COc1ccc(N2CCN(C(=O)C(c3ccccc3)n3cnc4[nH]ncc4c3=S)CC2)cc1 (stereo not shown) [XVIk, 1-[4-(4-Methoxy-phenyl)-piperazin-1-yl]-2-phenyl-2-(4-thioxo-1,4-dihydro-pyrazolo[3,4-d]pyrimidin-5-yl)-ethanone] | 300 nM | 114 to 118 °C |
| CCCCC1(O)CCN(C(=O)C(c2ccccc2)n2cnc3[nH]ncc3c2=S)CC1 (stereo not shown) [XVIn, 1-(4-Butyl-4-hydroxy-piperidin-1-yl)-2-phenyl-2-(4-thioxo-1,4-dihydro-pyrazolo[3,4-d]pyrimidin-5-yl)-ethanone] | – | 98 to 102 °C |
| C=CCOc1cccc(C(C(=O)N2CCCCCC2)n2cnc3[nH]ncc3c2=S)c1 (stereo not shown) [XVIt, 2-(3-Allyoxy-phenyl)-1-azepan-1-yl-2-(4-thioxo-1,4-dihydro-pyrazolo[3,4-d]pyrimidin-5-yl)-ethanone] | 345 nM | 75 to 80 °C |
| C=CCOc1cccc(C(C(=O)OC2CCCCC2)n2cnc3[nH]ncc3c2=S)c1 (stereo not shown) [XXIII] | 11000 nM | – |
| O=C(C(c1ccccc1)n1cnc2[nH]ncc2c1=S)N1CCCCC1 (stereo not shown) [XXVa] | 774 nM | – |
| O=C(C(c1ccccc1)n1cnc2[nH]ncc2c1=S)N1CCC(c2ccccc2)CC1 (stereo not shown) [XXVb] | 216 nM | – |
| O=C(C(c1cccc(O)c1)n1cnc2[nH]ncc2c1=S)N1CCCCCC1 (stereo not shown) [XXVc] | 51 nM | – |
| CN(C(=O)C(c1ccccc1)n1cnc2[nH]ncc2c1=S)c1ccccc1 (stereo not shown) [XXVe] | 749 nM | – |

Further lines, results first:

| IC50 [1] | melting point | SMILES |
| --- | --- | --- |
| 1200 nM | 170 to 173 °C | O=C(OC1CCCCC1)C(c1ccccc1)n1cnc2[nH]ncc2c1=S (stereo not shown) [XIIa, 2-Phenyl-(4-thioxo-1,4-dihydro-pyrazolo[3,4-d]pyrimidin-5-yl)-acetic acid cyclohexyl ester] |
| 514000 nM | 95 to 98 °C | O=C(O)C(c1ccccc1)n1cnc2[nH]ncc2c1=S (stereo not shown) [XIVa, 2-Phenyl-(4-thioxo-1,4-dihydro-pyrazolo [3,4-d]pyrimidin-5-yl)acetic acid] |
| 30000 nM | 176 to 180 °C | O=C(OC1CCCCC1)C(c1ccccc1)n1cnc2[nH]ncc2c1=O (stereo not shown) [XIa, (4-Oxo-1,4-dihydro-pyrazolo[3,4-d]pyrimidin-5-yl)-phenyl-acetic acid cyclohexyl ester] |
| 97 nM | – | O=C(C(c1ccccc1)n1cnc2[nH]ncc2c1=S)N1CCCCCC1 (stereo not shown) [XVIa, 1-Azepan-1-yl-2-phenyl-2-(4-thioxo-1,4-dihydro-1,4-dihrdropyrazolo[3,4-d]pyrimidin-5-yl)-ethanone] |
| 1500 nM | 82 to 86 °C | CON(C)C(=O)C(c1ccccc1)n1cnc2[nH]ncc2c1=S (stereo not shown) [XVIb, N-Methoxy-N-methyl-2-phenyl-2-(4-thioxo-1,4-dihydro-1,4-dihydro-pyrazolo[3,4-d]pyrimidin-5-yl)-ethanone] |
| 1800 nM | – | O=C(C(c1ccccc1)n1cnc2[nH]ncc2c1=S)N1CCCC(O)C1 (stereo not shown) [XVIc, 1-(3-Hydroxy-piperidin-1-yl)-2-phenyl-2-(4-thioxo-1,4-dihydro-1,4-dihydro-pyrazolo[3,4-d]pyrimidin-5-yl)-ethanone] |
| 96 nM | 92 to 95 °C | O=C(C(c1ccccc1)n1cnc2[nH]ncc2c1=S)N1CCCCCCC1 (stereo not shown) [XVIe, 1-Azocan-1-yl-2-phenyl-2-(4-thioxo-1,4-dihydro-1,4-dihydropyrazolo[3,4-d]pyrimidin-5-yl)-ethanone] |
| 82 nM | 155 to 160 °C | O=C(C(c1ccccc1)n1cnc2[nH]ncc2c1=S)N1CCC(O)(c2ccc(Br)cc2)CC1 (stereo not shown) [XVIg] |
| 389 nM | 242 to 246 °C | O=C(C(c1ccccc1)n1cnc2[nH]ncc2c1=S)N1CCN(c2ccccn2)CC1 (stereo not shown) [XVIi, 2-Phenyl-1-(4-pyridin-2-yl-piperazin-1-yl)-2-(4-thioxo-1,4-dihydro-pyrazolo[3,4-d]pyrimidin-5-yl)-ethanone] |
| 279 nM | 138 to 142 °C | O=C(C(c1ccccc1)n1cnc2[nH]ncc2c1=S)N1CCC(O)(c2ccccn2)CC1 (stereo not shown) [XVIm, 1-(4-Hydroxy-3′,4′,5′,6′-tetrahydro-2H-[2,4]bipyridinyl-1′-yl]-2-phenyl-2-(4-thioxo-1,4-dihydro-pyrazolo[3,4-d]pyrimidin-5-yl)-ethanone] |
| 210 nM | 140 to 144 °C | CC1(O)CCN(C(=O)C(c2ccccc2)n2cnc3[nH]ncc3c2=S)CC1 (stereo not shown) [XVIp, 1-(4-Methyl-4-hydroxy-piperidin-1-yl)-2-phenyl-2-(4-thioxo-1,4-dihydro-pyrazolo[3,4-d]pyrimidin-5-yl)-ethanone] |
| 2800 nM | – | CCN(C(=O)C(c1ccccc1)n1cnc2[nH]ncc2c1=S)C(C)C (stereo not shown) [XVIq, N-Ethyl-N-isopropyl-2-phenyl-2-(4-thioxo-1,4-dihydro-pyrazolo[3,4d]pyrimidin-5-yl)-acetamide] |
| 93 nM | 143 to 146 °C | CCN(CC)C(=O)C(c1ccccc1)n1cnc2[nH]ncc2c1=S (stereo not shown) [XVIr, N,N-Diethyl-2-phenyl-2-(4-thioxo-1,4-dihydro-pyrazolo[3,4-d]pyrimidin-5-yl)-acetamide] |
| 406 nM | 116 to 120 °C | C=CCOc1cccc(C(C(=O)N2CCC(O)(c3ccccc3)CC2)n2cnc3[nH]ncc3c2=S)c1 (stereo not shown) [XVIs, 2-(3-Allyoxy-phenyl)-1-(4-hydroxy-4-phenyl-piperidin-1-yl)-2-(4-thioxo-1,4-dihydro-pyrazolo[3,4-d]pyrimidin-5-yl)-ethanone] |
| 71 nM | – | CCCCC1(O)CCN(C(=O)C(c2ccccc2)n2cnc3[nH]ncc3c2=S)CC1 (stereo not shown) [XXVd] |
